Data on one compound can be found in patent US9980927B2, “Use of tapentadol for inhibiting and/or treating depression and anxiety” (Gruenenthal GmbH, priority 2011, dated 2018).

The subject of the test is patients with inadequately managed, severe chronic low back pain with or without a neuropathic pain component. Description: Short Form 36 Health Survey (SF-36) scores, same trial. The note with it: Baseline to Week 12, all P<0.05. In kind it is in vivo, human patients. The source says: This was a multicenter, multinational, open-label, effectiveness phase IIIb trial to evaluate effectiveness and safety of tapentadol prolonged release treatment in patients with inadequately managed, severe chronic low back pain with or without a neuropathic pain component. Patients taking WHO Step II analgesics discontinued those analgesics before starting study medication; patients taking Step I analgesics and/or centrally acting co-analgesics continued on the same dose. […] All patients received tapentadol prolonged release (50-250 mg bid) for up to 12 weeks (5-week titration period and a 7-week maintenance period). Tapentadol immediate release (IR) 50 mg (twice a day, hours apart) was permitted (combined total daily dose of tapentadol prolonged release and tapentadol IR, 500 mg/day). The primary efficacy endpoint was the change from Baseline to Week 6 (when tapentadol prolonged release doses were stable) in average pain intensity on the 11-point NRS-3 using the last observation carried forward (LOCF) for imputing missing scores. […]
All subjects completed Short Form-36 (SF-36) and EuroQol-5 Dimension (EQ-5D) questionnaires and the Hospital Anxiety and Depression Scale (HADS). […] Adverse events were recorded throughout the trial.

As for `CC[C@@H](c1cccc(O)c1)[C@@H](C)CN(C)C` [tapentadol, (−)-(1R,2R)-3-(3-dimethylamino-1-ethyl-2-methyl-propyl)-phenol], the “SF-36 physical functioning, bodily pain, general health, role-emotional and physical component summary scores” value (patients painDETECT negative or unclear/positive) was “improved”. The “SF-36 role-physical, vitality, social functioning, mental health, reported health transition and mental component summary scores” value (patients painDETECT unclear/positive) is recorded as “also improved”.
